Results on nine compounds are retold here after PubChem BioAssay (NCI).

Molecules are shown by their SMILES.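 A five-concentration, 48-hour dose response in 96-well plates underlies each endpoint, interpolated linearly between surrounding concentrations. The concentration for 50% growth inhibition is given as GI50. The concentration for full growth arrest is given as TGI.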

Some test systems named below: 786-0 renal; A549 NSCLC; HCT-116 colon; HOP-62 NSCLC; HOP-92 NSCLC; HT29 colon; M14 melanoma; MOLT-4 leukemia; NCI-H522 lung; SF-539 CNS.
Holding throughout (test): growth of human tumour cells (NCI), 48 h

With `COc1ccc2c(c1)CC[C@@H]1[C@@H]2CC[C@]2(C)C(c3ccco3)=C(C=O)C[C@@H]12`, the GI50 is 23.1 µM with 786-0 renal; 26.1 µM with A549 NSCLC; 2.95 µM with HCT-116 colon; 20.9 µM in the test on HOP-62 NSCLC; 8.38 µM with HOP-92 NSCLC; 5.37 µM in the test on HT29 colon. The GI50 was 5.24 µM in the test with M14 melanoma, 7.27 µM in the test with MOLT-4 leukemia, 21.1 µM with NCI-H522 lung and 20 µM with SF-539 CNS. Besides, the TGI was 55.5 µM in the test with 786-0 renal; 65.1 µM in the test on A549 NSCLC; 12.8 µM with HCT-116 colon; 46.2 µM with HOP-62 NSCLC; 28 µM in the test with HOP-92 NSCLC; more than 100 µM in the test on HT29 colon. Also, the TGI was 30.5 µM in the test with M14 melanoma, 38.6 µM in the test on MOLT-4 leukemia, more than 100 µM in the test with NCI-H522 lung and 40.6 µM in the test with SF-539 CNS.
As for `O=[N+]([O-])c1nccn1COCCF`, the TGI in the test on 786-0 renal, with A549 NSCLC, with HCT-116 colon, in the test on HOP-62 NSCLC, with HOP-92 NSCLC and with HT29 colon was more than 100 µM in each case. Moreover, the TGI in the test with M14 melanoma, with MOLT-4 leukemia, with NCI-H522 lung and in the test on SF-539 CNS was more than 100 µM each time.
With `CCOC(=O)c1sc(=S)c2c(C(=O)OCC)c(C(=O)OCC)sc2c1C(=O)OCC`, the GI50 in the test on 786-0 renal was 20.4 µM; with A549 NSCLC, 16.4 µM; in the test with HCT-116 colon, 18 µM; in the test with HOP-62 NSCLC it was 17.6 µM; in the test with HOP-92 NSCLC it was 10.3 µM; in the test with HT29 colon, 28 µM. The GI50 in the test on M14 melanoma was 16.8 µM; in the test with MOLT-4 leukemia, 15.9 µM; in the test on NCI-H522 lung, 10.6 µM; in the test with SF-539 CNS, 18.9 µM. For the same compound, the TGI in the test on 786-0 renal is 44.5 µM; in the test on A549 NSCLC, 42.8 µM; with HCT-116 colon, 40 µM; with HOP-62 NSCLC, 33.4 µM; in the test with HOP-92 NSCLC, 23 µM; in the test on HT29 colon, more than 100 µM. The TGI in the test on M14 melanoma is 32.6 µM; in the test on MOLT-4 leukemia, 42.3 µM; in the test on NCI-H522 lung, 26.4 µM; in the test on SF-539 CNS, 36.1 µM.
For the compound `CCC(C)C(NC(=O)C1CCCN1C(=O)C(NC(=O)C(C)N)C(C)C)C(N)=O` (stereo not drawn), the GI50 with 786-0 renal, in the test on A549 NSCLC, in the test on HCT-116 colon, with HOP-62 NSCLC, with HOP-92 NSCLC and in the test with HT29 colon was more than 100 µM each time. The GI50 with M14 melanoma, in the test with MOLT-4 leukemia and in the test on NCI-H522 lung was more than 100 µM each time. Also, the TGI in the test with 786-0 renal, in the test on A549 NSCLC, in the test with HCT-116 colon, in the test with HOP-62 NSCLC, with HOP-92 NSCLC and in the test with HT29 colon was more than 100 µM throughout. In addition, the TGI in the test with M14 melanoma, with MOLT-4 leukemia, with NCI-H522 lung and in the test on SF-539 CNS was more than 100 µM in each case.
For `C=C1C(=O)O[C@H]2[C@H]1CC/C(COC(=O)NCc1c[nH]c3ccc(Cl)cc13)=C\CC[C@@]1(C)O[C@@H]21`, the GI50 in the test with 786-0 renal is 1.07 µM; in the test on A549 NSCLC, 1.7 µM; in the test with HCT-116 colon, 1.27 µM; with HOP-62 NSCLC, 1.72 µM; with HOP-92 NSCLC it was 1.46 µM; in the test with HT29 colon, 0.625 µM. The GI50 in the test on M14 melanoma was 1.4 µM; with MOLT-4 leukemia it was 1.34 µM; with NCI-H522 lung, 0.527 µM; in the test on SF-539 CNS it was 1.58 µM. The TGI with 786-0 renal was determined as 2.49 µM; with A549 NSCLC, 3.43 µM; in the test on HCT-116 colon it was 2.61 µM; with HOP-62 NSCLC, 3.74 µM; in the test with HOP-92 NSCLC, 3.01 µM; in the test with HT29 colon, 2.12 µM. In addition, the TGI in the test on M14 melanoma was determined as 2.91 µM; in the test with MOLT-4 leukemia, 4.91 µM; in the test with NCI-H522 lung, 2.05 µM; with SF-539 CNS, 3.04 µM.
`Cc1cc(Cl)cc2c1NC(=O)C2(O)C(C)C(=O)c1ccc(Cl)cc1` (stereo not drawn): the TGI with 786-0 renal, with A549 NSCLC, with HCT-116 colon, with HOP-62 NSCLC, with HOP-92 NSCLC and with HT29 colon was more than 100 µM each time. In addition, the TGI in the test on M14 melanoma is more than 100 µM; with MOLT-4 leukemia, 87.7 µM; in the test on NCI-H522 lung it was more than 100 µM; in the test with SF-539 CNS, more than 100 µM.
On to `COc1ccc(/C=C2\CCC(C)(CN(C)C)C2=O)cc1` (stereo not drawn), for which the TGI with 786-0 renal, in the test with A549 NSCLC, in the test with HCT-116 colon, in the test with HOP-62 NSCLC, in the test with HOP-92 NSCLC and with HT29 colon was more than 100 µM each time. Besides, the TGI with M14 melanoma was more than 100 µM; in the test with MOLT-4 leukemia, more than 100 µM; in the test on NCI-H522 lung it was 32.8 µM; with SF-539 CNS, more than 100 µM.
On to `CN(C)CCCc1c[nH]c2ccccc12`, for which the TGI in the test with 786-0 renal, in the test on A549 NSCLC, with HCT-116 colon, in the test on HOP-62 NSCLC, in the test on HOP-92 NSCLC and with HT29 colon was more than 100 µM each time. Besides, the TGI in the test with M14 melanoma, with MOLT-4 leukemia, in the test with NCI-H522 lung and in the test with SF-539 CNS was more than 100 µM each time.
Regarding `CCC(=C/[C@H](C)C/C=C/C(C)=C/[C@@H](C)C(=O)[C@@H](C)[C@H](O)[C@@H](C)CC)/C=C/[C@H]1OC(=O)C=C[C@H]1C`, the GI50 in the test with 786-0 renal, in the test on A549 NSCLC, with HCT-116 colon, in the test with HOP-62 NSCLC, with HOP-92 NSCLC and in the test with HT29 colon was less than 0.01 µM throughout. For the same compound, the GI50 with M14 melanoma, in the test with MOLT-4 leukemia, with NCI-H522 lung and in the test with SF-539 CNS was less than 0.01 µM in each case. Further, the TGI in the test with 786-0 renal was found to be 0.642 µM; with A549 NSCLC it was 1.93 µM; in the test on HCT-116 colon it was 0.0102 µM; in the test on HOP-62 NSCLC it was 1.13 µM; with HOP-92 NSCLC, 0.722 µM; in the test with HT29 colon, 1.2 µM. Further, the figures for the TGI with M14 melanoma, with NCI-H522 lung and with SF-539 CNS were 0.132 µM, less than 0.01 µM and 0.439 µM, respectively.
